# What was measured:
# Renilla luciferase 547 = experiment: Substrate specificity of various luciferases: Renilla luciferase 547; assay type: biochemical; conditions: relative to coelenterazine = 100
# Procedure: (§1) The preparation of various luciferases and the determination of their luminescence activities were carried out in accordance with the methods as previously reported. The catalytic 19 kDa domain of Oplophorus luciferase was produced by the method described in Inouye S. & Sasaki S. (2007) Protein Express. Purif. 56, 261-268, Gaussia luciferase by the method described in Inouye S & Sahara Y. (2008) Biochem. Biophys. Res. Commun. 368, 600-605, Renilla luciferase and Renilla luciferase 547 by the method described in Inouye S. et al. (2013) Protein Express. Purif. 88, 150-156, and aequorin by the method described in Inouye S et al. (2010) Anal. Biochem. 407, 247-252, respectively, and used.
# Renilla luciferase = target: T1, Renilla luciferase (Renilla reniformis, UniProt P27652); experiment: Substrate specificity of various luciferases: Renilla luciferase; assay type: biochemical; conditions: relative to coelenterazine = 100
# T1 construct: made in house
# T1 sequence (P27652 1-311): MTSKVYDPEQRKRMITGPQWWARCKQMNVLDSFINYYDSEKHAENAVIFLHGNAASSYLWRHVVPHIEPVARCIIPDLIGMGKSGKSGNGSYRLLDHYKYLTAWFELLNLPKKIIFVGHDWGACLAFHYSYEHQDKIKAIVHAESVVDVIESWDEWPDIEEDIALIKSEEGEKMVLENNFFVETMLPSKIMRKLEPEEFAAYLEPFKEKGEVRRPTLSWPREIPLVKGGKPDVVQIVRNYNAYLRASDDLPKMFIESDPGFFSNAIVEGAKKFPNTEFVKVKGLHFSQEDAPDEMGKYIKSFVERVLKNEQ
# Procedure: as §1
# [1] = target: T2, nanoKAZ (mutated catalytic 19 kDa domain of Oplophorus luciferase) (Oplophorus gracilirostris, UniProt Q9GV45, A31E/A60N/A81I/F95D/I117V/K70R/L54V/L99Q/M102K/N193R/P142E/Q151K/Q38R/Q45L/V71I/Y165I); experiment: Luminescence activity of secreted codon-optimized nanoKAZ domain protein with coelenterazine analogs as substrates; assay type: biochemical
# T2 construct: secretory signal peptide of Gaussia luciferase (GLsp) (N, cleaved yes); made in house; host or cells: CHO-K1 transiently transfected with pcDNA3-GLsp-nanoKAZ; unpurified culture medium used as the enzyme solution
# Procedure: The Chinese hamster ovary-derived cell line CHO-K1 was cultured in Ham's F-12 medium (manufactured by Wako Pure Chemical Industries, Ltd.) containing 10% (v/v) calf fetal serum (manufactured by Biowest Inc.), and cultured in DMEM (manufactured by Wako Pure Chemical Industries, Ltd.) containing 10% (v/v) calf fetal serum (manufactured by Biowest Inc.). The respective cells were seeded in a 6-well culture plate (n=2) with 1×10^5 cells/well/2 mL medium, and cultured in an incubator at 37° C. in 5% CO2, respectively. After 24 hours, the purified pcDNA3-GLsp-nanoKAZ plasmid was transfected into CHO-K1 cells using a FuGene HD Transfection Kit (manufactured by Promega Corp.), which was used in the subsequent experiment. Specifically, 1 μg of the pcDNA3-GLsp-nanoKAZ expression vector and 3 μL of FuGene HD were added to 100 μL of medium, which was allowed to stand at room temperature for 15 minutes. Then 100 μL of the DNA-FuGene complex solution was added to the cells in the 6 wells. After incubation for 48 hours, the culture medium was recovered and used as the secreted nanoKAZ enzyme solution for assay.
# The enzyme solution, 5 μL, for assay obtained in EXAMPLE 4 (2) was added to 100 pt of 50 mM Tris-HCl (pH 7.6)-10 mM EDTA (Wako Pure Chemical Industries) containing 1 μg each of various coelenterazine analogs to initiate the luminescence reaction. The luminescence activity was determined by a luminometer (AB2200, manufactured by Atto Company) for 60 seconds and expressed by the maximum luminescence intensity (Imax) and the relative light units (du) of the lumimescence intensity integrated for 60 seconds.
# The coelenterazine analogs used for substrate specificity analysis except for the analog described in EXAMPLE 1 were synthesized by the methods as described in the journals below, respectively. Specifically, bis-coelenterazine was synthesized by the method described in Nakamura et al. (1997) Tetrahedron Lett. 38: 6405-6406; Furimazine (Compound No. 3939 referred to in the journal) and C6d-coelenterazine (Compound No. 3840 referred to in the journal) by the method described in Hall et al. (2012) ACS Chem. Biol. […]; and the C2-coelenterazine analogs by the method described in Inouye et al (2010) Anal. Biochem. 407: 247-252. The enzyme solution of the culture medium in which nanoKAZ was secreted by the method as described in EXAMPLE 4 (2) was used for determining the luminescence activity with coelenterazine or its analogs. […] As a result, the luminescence substrates which can markedly improve the luminescence intensity and the amount of the integrated luminescence intensity to compare with furimazine are bis-coelenterazine and C6d-f-coelenterazine, showing a continuous luminescence without a decay of the luminescence intensity.
# [2] = target: T3, Catalytic 19 kDa domain of Oplophorus luciferase (Oplophorus gracilirostris, UniProt Q9GV45); experiment: Substrate specificity of various luciferases: catalytic 19 kDa domain of Oplophorus luciferase; assay type: biochemical, Oplophorus grachlorostris; conditions: relative to coelenterazine = 100
# T3 construct: The catalytic 19 kDa domain of Oplophorus luciferase was produced by the method described in; made in house
# Procedure: as §1
# [3] = Stability of coelenterazine analogs in aqueous solution (HPLC); assay type: physicochemical; conditions: 30 mM Tris-HCl (pH 7.6)
# Procedure: The stability of coelenterazine analogs in an aqueous solution was examined by dissolving 10 μg of coelenterazine analogs in 0.5 mL of 30 mM Tris-HCl (pH 7.6), allowing the solution to stand at 37° C. for 22 hours, and then the degradation of coelenterazine analogs was determined by HPLC analysis. The HPLC analysis was performed by the modified method as described in Inouye S. et al. (2013) Protein Express. Purif. 88, 150-156.
# Aequorin = target: T4, Aequorin (Aequorea victoria, UniProt P07164); assay type: biochemical, jellyfish; conditions: relative to coelenterazine = 100
# T4 construct: made in house
# Procedure: as §1
# Gaussia luciferase = experiment: Substrate specificity of various luciferases: Gaussia luciferase; assay type: biochemical; conditions: relative to coelenterazine = 100
# Procedure: as §1
# T2 sequence (Q9GV45 other isoform, or with tags, fused parts or gaps with the stated changes): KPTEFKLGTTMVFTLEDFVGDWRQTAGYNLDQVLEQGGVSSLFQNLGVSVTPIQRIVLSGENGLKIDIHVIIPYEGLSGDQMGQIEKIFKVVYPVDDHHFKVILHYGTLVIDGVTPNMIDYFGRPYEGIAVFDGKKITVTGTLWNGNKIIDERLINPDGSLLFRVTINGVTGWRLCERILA
# T4 sequence (P07164 8-196): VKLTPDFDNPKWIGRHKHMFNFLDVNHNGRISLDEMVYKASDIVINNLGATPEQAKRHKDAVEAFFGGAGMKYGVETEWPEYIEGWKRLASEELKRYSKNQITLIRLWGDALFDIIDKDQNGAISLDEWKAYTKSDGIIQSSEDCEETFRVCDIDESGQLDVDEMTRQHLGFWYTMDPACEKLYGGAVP
# T3 sequence (Q9GV45 28-196): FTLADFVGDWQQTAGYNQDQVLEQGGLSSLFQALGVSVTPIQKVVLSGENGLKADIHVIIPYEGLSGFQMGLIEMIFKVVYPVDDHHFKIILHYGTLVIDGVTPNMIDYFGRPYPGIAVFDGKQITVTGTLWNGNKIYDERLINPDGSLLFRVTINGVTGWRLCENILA
structure (smiles),measurement,setting,value
O=c1c(Cc2ccco2)nc2c(Cc3ccccc3)[nH]c(-c3ccccc3)cn1-2 [Furimazine],"Maximum Luminescence Intensity (Imax, %)",Renilla luciferase 547,0.01%
same,"Relative Amount of Integrated Luminescence Intensity (1 min, %)",Renilla luciferase 547,(0.01) %
same,"Maximum Luminescence Intensity (Imax, %)",Renilla luciferase,0.01%
same,"Relative Amount of Integrated Luminescence Intensity (1 min, %)",Renilla luciferase,(0.01) %
same,Luminescence pattern (decay),"[1]; FIG. 3, recombinant nanoKAZ",did not exhibit a rapid decay
same,Relative maximum luminescence intensity (Imax),"[1]; relative to coelenterazine = 1.0, 1 μg substrate, 50 mM Tris-HCl (pH 7.6)-10 mM EDTA, 60 seconds",5.5
same,Relative amount of integrated luminescence intensity (1 min.),"[1]; relative to coelenterazine = 1.0, integrated for 60 seconds",5.7
same,"Maximum Luminescence Intensity (Imax, %)",[2],72.2%
same,"Relative Amount of Integrated Luminescence Intensity (1 min, %)",[2],(65.2) %
same,Residual Ratio of Coelenterazine Analog (%),[3]; incubation time at 37° C. 0 hour,100%
same,Residual Ratio of Coelenterazine Analog (%),[3]; incubation time at 37° C. 22 hours,3%
same,"Maximum Luminescence Intensity (Imax, %)",Aequorin,0.02%
same,"Relative Amount of Integrated Luminescence Intensity (1 min, %)",Aequorin,(0.02) %
same,"Maximum Luminescence Intensity (Imax, %)",Gaussia luciferase,0%
same,"Relative Amount of Integrated Luminescence Intensity (1 min, %)",Gaussia luciferase,(0) %
